Test results from US20230158071A1, “TUMOR COMBINED IMMUNOTHERAPY” (CRAGE medical Co., Limited, priority 2018, published 2023).

Key:
[1] = test system: exhaustion-related proteins PD1, LAG3 and TIM3 on the surface of CAR-T cells; experiment: Flow cytometry of exhaustion-related proteins on CAR-T cells in co-culture; type: cell-based, mouse
Experimental: The experimental groups are as follows: 806-mCD28z-CAR-T group (or denoted as 806-28Z), olaparib pretreatment group, and olaparib combined treatment group;
The olaparib pretreatment group comprises: 806-mCD28z-CAR-T+1 μM olaparib pretreatment group (or denoted as 806-28Z+Olaparib 1 μM pretreatment), 806-mCD28z-CAR-T+5 μM olaparib pretreatment group (or denoted as 806-28Z+Olaparib 5 μM pretreatment);
Olaparib combined treatment group comprises: 806-mCD28z-CAR-T+1 μM olaparib combined treatment group (or denoted as 806-28Z+Olaparib 1 μM), 806-mCD28z-CAR-T+5 μM olaparib combined treatment group (or denoted as 806-28Z+Olaparib 5 μM).
(§1) Olaparib pretreatment group: different concentrations of olaparib (1 μM, 5 μM) are respectively added to a medium for culturing E0771-EGFRvIII or 4T1-EGFRvIII tumor cells, after culturing at 37° C. for 24 hours, the cells are treated with trypsin and resuspended in fresh medium. 806-mCD28z-CAR T cells in Example 1 are taken to co-incubate with E0771-EGFRVIII or 4T1-EGFRvIII cells pretreated with different concentrations of olaparib at a ratio of 1:1; 16 hours later, the proliferation of CAR-T cells and the expression levels of the T cell exhaustion-related proteins PD1, LAG3 and TIM3 on the surface of CAR-T cells are detected by flow cytometry.
as §1, with “combined treatment” for “pretreatment”, “E0771-EGFRvIII” for “E0771-EGFRVIII”, “1:1; after corresponding concentrations of olaparib (1 μM, 5 μM) are respectively added to the medium for” for “1:1;”, “hours,” for “hours later,”, “LAG-3” for “LAG3”

4T1-EGFRvIII cells = experiment: LDH cytotoxicity assay, CAR-T killing of olaparib-treated 4T1-EGFRvIII cells; type: cell-based, mouse
Experimental: The experimental groups for incubating with cells that are positive for the antigen target comprises the following 4 groups: UTD group, 806-mCD28z-CAR-T group (or denoted as 806-28Z), olaparib pretreatment group, and olaparib combined treatment group;
the olaparib pretreatment group comprises: UTD+1 μM olaparib pretreatment group (or denoted as UTD+Olaparib 1 μM pretreatment), UTD+5 μM olaparib pretreatment group (or denoted as UTD+Olaparib 5 μM pretreatment), 806-mCD28z-CAR-T+1 μM olaparib pretreatment group (or denoted as 806-28Z+Olaparib 1 μM pretreatment). 806-mCD28z-CAR-T+5 μM olaparib pretreatment group (or denoted as 806-28Z+Olaparib 5 μM pretreatment); […]
Olaparib pretreatment group: different concentrations of olaparib (1 μM, 5 μM) are added to the medium for culturing E0771-EGFRVIII or 4T1-EGFRvIII tumor cells respectively, culturing at 37° C. for 24 h, and then the cells are treated with trypsin and resuspended in fresh medium. The untreated mouse T cells and 806-mCD28z-CAR T cells in Example 1 are respectively taken to incubate with E0771-EGFRvIII or 4T1-EGFRVIII cells pretreated with different concentrations of olaparib at a ratio of 1:3, 1:1, and 3:1; 16 hours later, the secretion of LDH in the supernatant is detected by Cytox 96 Non-Radioactive Cytotoxicity Assay, then calculating the killing toxicity of 806-mCD28z CAR T cells to tumor cells pretreated with different concentrations of olaparib. […] Cytox 96 Non-Radioactive Cytotoxicity Assay (Promaga, REF: G1782); at the same time, the secretions of cytokines Granzyme B, IFN-γ, and IL-2 in the supernatant are detected by ELISA kit (Lianke Biotech Co. Ltd. CAT: 18^.22), for specific experimental procedures, referring to instructions of MouseGranzyme B, IFN-γ, IL-2 ELISA kit from Lianke Biotech Co, Ltd. […]

[2] = olaparib combined treatment group

O=C(c1cc(Cc2n[nH]c(=O)c3ccccc23)ccc1F)N1CCN(C(=O)C2CC2)CC1 [olaparib]
expression level of LAG3 on the surface of CAR-T cells [1, 2]: do not change significantly
expression level of PD1 on the surface of CAR-T cells [1, 2]: do not change significantly
expression level of TIM3 on the surface of CAR-T cells [1, 2]: do not change significantly
expression level of LAG3 on the surface of CAR-T cells ([1]; olaparib pretreatment group): do not change significantly
expression level of PD1 on the surface of CAR-T cells ([1]; olaparib pretreatment group): do not change significantly
expression level of TIM3 on the surface of CAR-T cells ([1]; olaparib pretreatment group): do not change significantly
lethal effect on 4T1-EGFRvIII cells compared with the CAR-T single treatment group (4T1-EGFRvIII cells; 5 μM olaparib combined treatment group): higher synergistic lethal effect
promotion of the killing effect of CAR-T cells on 4T1-EGFRvIII cells (4T1-EGFRvIII cells; 5 μM olaparib pretreatment group, better than 5 μM combined treatment group): most significant
killing effect of CAR-T cells on 4T1-EGFRvIII cells (4T1-EGFRvIII cells; olaparib 1 μM or 5 μM, pretreatment or combined treatment, vs CAR-T alone, ratio 1:3, 1:1, 3:1, 16 hours, LDH): significantly improved
